Assay results reported in ChEMBL document CHEMBL5625204, “Synthesis and pharmacodynamic evaluation of naphthalene derivatives against influenza A virus in vitro and in vivo” (Eur J Med Chem, 2023).
Active and inactive are the calls of the source. The rule behind the calls is not given here.

Key:
[1] = Selectivity index, ratio of CC50 for dog MDCK cells to EC50 for antiviral activity against Influenza A virus H1N1 (A/Virginia/ATCC2/2009) infected in MDCK cells; format: toxicity, cell-based; settings: read-out: Ratio CC50/EC50
Influenza A virus [2] = assay: Antiviral activity against Influenza A virus H1N1 (A/Weiss/43)-infected in BALB/c mouse assessed as reduction in viral NP mRNA expression in lungs at 25 to 100 mg/kg/day administered intranasally for 2 to 6 days starting from 3 hrs post-viral infection by qRT-PCR analysis; format: functional, organism-based; settings: dose 25-100 mg/kg/day, route nas, time 2-6 day
Influenza A virus [3] = assay: Antiviral activity against Influenza A virus H1N1 infected in human A549 cells assessed as decrease in cytokine gene expression by measuring decrease in IFN-beta gene expression at 25 to 50 uM measured after 24 hrs by qRT-PCR analysis; format: functional, organism-based; settings: dose 25-50 µM
Influenza A virus [4] = assay: Antiviral activity against Influenza A virus H3N2 (A/California/2004) infected in MDCK cells assessed as reduction of viral replication incubated for 72 hrs by TCID50 method; format: functional, organism-based
Influenza A virus [5] = assay: Antiviral activity against Influenza A virus H1N1 infected in human A549 cells assessed as decrease in cytokine gene expression by measuring decrease in IL-6 gene expression at 25 to 50 uM measured after 24 hrs by qRT-PCR analysis; format: functional, organism-based; settings: dose 25-50 µM
Influenza A virus [6] = assay: Antiviral activity against Influenza A virus H1N1 (A/Weiss/43)-infected in BALB/c mouse assessed as reduction in lung index at 25 mg/kg/day administered intranasally for 6 days starting from 3 hrs post-viral infection; format: functional; settings: 144 h, route nas, time 6 day
Influenza A virus [7] = assay: Antiviral activity against Influenza A virus H1N1 (A/Weiss/43)-infected in BALB/c mouse assessed as reduction in lung tissue damage administered intranasally for 4 to 6 days starting from 3 hrs post-viral infection; format: functional, organism-based; settings: dose 25-100 mg/kg/day, route nas, time 4-6 day
Influenza A virus [8] = assay: Antiviral activity against Influenza A virus H1N1 infected in human A549 cells assessed as decrease in incompleted autophagy by measuring increase in p62 protein expression at 25 to 50 uM measured after 24 hrs by western blot analysis; format: functional, organism-based; settings: dose 25-50 µM
Influenza A virus [9] = assay: Antiviral activity against Influenza A virus H1N1 (A/Weiss/43)-infected in BALB/c mouse assessed as reduction in OAS1 gene expression in lungs at 25 to 100 mg/kg/day administered intranasally for 6 days starting from 3 hrs post-viral infection by qRT-PCR analysis; format: functional, organism-based; settings: dose 25-100 mg/kg/day, route nas, time 6.0 day
Influenza A virus [10] = assay: Antiviral activity against Influenza A virus H1N1 infected in dog MDCK cells assessed as decrease in apoptosis by measuring proportion of early apoptotic cells at 50 uM measured after 72 hrs by AnnexinV-FITC/PI staining based flow cytometry (reference value: 24.3%); format: functional; set-up: scale not given: the % may be the effect or the level left
[11] = Toxicity in dog MDCK cells assessed as proportion of viable cells at 50 uM measured after 72 hrs by AnnexinV-FITC/PI staining based flow cytometry (reference value: 90.6%); format: cell-based, Canis lupus familiaris; settings: read-out: Activity
Influenza A virus [12] = assay: Antiviral activity against Influenza A virus H1N1 (A/Weiss/43)-infected in BALB/c mouse assessed as reduction in TLR-7 gene expression in lungs at 25 to 100 mg/kg/day administered intranasally for 6 days starting from 3 hrs post-viral infection by qRT-PCR analysis; format: functional, organism-based; settings: dose 25-100 mg/kg/day, route nas, time 6.0 day
Influenza A virus [13] = assay: Antiviral activity against Influenza A virus H1N1 infected in human A549 cells assessed as decrease in RIG-1 pathway related protein expression by measuring decrease in RIG-1 protein expression at 25 to 50 uM measured after 24 hrs by western blot analysis; format: functional, organism-based; settings: dose 25-50 µM
Influenza A virus [14] = assay: Antiviral activity against Influenza A virus H1N1 (A/Weiss/43)-infected in dog MDCK cells assessed as reduction in oxidative stress by measuring proportion of cells with excessive ROS accumulation at 25 uM treated at 2 hrs post-infection and measured after 36 hrs by DCFH-DA staining based flow cytometry (reference value: 30.6%); format: functional; set-up: scale not given: the % may be the effect or the level left
Influenza A virus [15] = assay: Antiviral activity against Influenza A virus H1N1 infected in dog MDCK cells assessed as decrease in apoptosis by measuring proportion of viable cells at 50 uM measured after 72 hrs by AnnexinV-FITC/PI staining based flow cytometry (reference value: 62.9%); format: functional
Influenza A virus [16] = assay: Inhibition of Influenza A virus replication infected in dog MDCK cells assessed as downregulation of virus NP protein expression by measuring decrease in green fluorescence intensity at 25 to 50 uM measured after 24 hrs by immunofluorescence analysis; format: functional, organism-based; settings: dose 25-50 µM
Influenza A virus [17] = assay: Antiviral activity against Influenza A virus H1N1 (A/Weiss/43)-infected in BALB/c mouse assessed as reduction in pulmonary inflammation at 25 to 100 mg/kg/day administered intranasally for 6 days starting from 3 hrs post-viral infection by Hematoxylin-Eosin staining based analysis; format: functional, organism-based; settings: dose 25-100 mg/kg/day, route nas, time 6.0 day
Influenza A virus [18] = assay: Antiviral activity against Influenza A virus H1N1 infected in dog MDCK cells assessed as decrease in apoptosis by measuring proportion of necrotic cells at 25 uM measured after 72 hrs by AnnexinV-FITC/PI staining based flow cytometry (reference value: 2.47%); format: functional; set-up: scale not given: the % may be the effect or the level left
Influenza A virus [19] = assay: Antiviral activity against Influenza A virus H1N1 infected in dog MDCK cells assessed as decrease in apoptosis by measuring proportion of viable cells at 25 uM measured after 72 hrs by AnnexinV-FITC/PI staining based flow cytometry (reference value: 62.9%); format: functional
Influenza A virus [20] = assay: Antiviral activity against Influenza A virus H1N1 infected in human A549 cells assessed as decrease in apoptosis inducing factor gene expression by measuring decrease in FasL gene expression at 25 to 50 uM measured after 24 hrs by qRT-PCR analysis; format: functional, organism-based; settings: dose 25-50 µM
[21] = Toxicity in BALB/c mouse infected with Influenza A virus H1N1 (A/Weiss/43) assessed as liver pathological changes at 25 to 100 mg/kg/day administered intranasally for 6 days starting from 3 hrs post-viral infection by Hematoxylin-Eosin staining based analysis; format: organism-based; settings: in vivo, inhaled_or_intranasal, 144 h, dose 25-100 mg/kg/day, time 6 day
[22] = Selectivity index, ratio of CC50 for dog MDCK cells to EC50 for antiviral activity against Influenza A virus H1N1 (A/Weiss/43) infected in MDCK cells treated for 72 hrs after viral adsorption; format: toxicity, cell-based; settings: read-out: Ratio CC50/EC50
[23] = Toxicity in dog MDCK cells assessed as ROS production by measuring proportion of normal cells at 50 uM measured after 36 hrs by DCFH-DA staining based flow cytometry (reference value: 99.9%); format: cell-based, Canis lupus familiaris
Influenza A virus [24] = assay: Antiviral activity against Influenza A virus H1N1 (A/Weiss/43) infected in MDCK cells assessed as reduction of viral replication treated for 72 hrs after viral adsorption by TCID50 method; format: functional, organism-based
Influenza A virus [25] = assay: Antiviral activity against Influenza A virus H1N1 (A/Weiss/43) infected in MDCK cells assessed as reduction in cell pathological changes at 25 to 50 uM by microscopic analysis; format: functional, organism-based; settings: dose 25-50 µM
Influenza A virus [26] = assay: Antiviral activity against Influenza A virus H1N1 (A/Weiss/43)-infected in BALB/c mouse assessed as reduction in Mx1 gene expression in lungs at 25 to 100 mg/kg/day administered intranasally for 6 days starting from 3 hrs post-viral infection by qRT-PCR analysis; format: functional, organism-based; settings: dose 25-100 mg/kg/day, route nas, time 6.0 day

## O=[N+]([O-])c1ccc(S(=O)(=O)N(Cc2ccccc2)c2cccc3ccccc23)cc1
[1]
  selectivity ratio: > 240
Influenza A virus [2]
  Activity: Active
Influenza A virus [3]
  inhibition: Active
Influenza A virus [4]
  EC50: 6.61 µM
Influenza A virus [5]
  inhibition: Active
Influenza A virus [6]
  inhibition in vivo at 25 mg/kg/day: 20.6%
Influenza A virus [7]
  Activity: Dose-Dependent Effect
Influenza A virus [8]
  inhibition: Active
Influenza A virus [9]
  Activity: Active
Influenza A virus [10]
  Activity: 2.93%
[11]
  viability at 72 h, 50 µM: 96.9%
Influenza A virus [12]
  Activity: Active
Influenza A virus [13]
  inhibition: Active
Influenza A virus [14]
  Activity: 12.3%
Influenza A virus [15]
  Activity: 95.4%
Influenza A virus [16]
  inhibition: Active
Influenza A virus [17]
  Activity: Dose-Dependent Effect
Influenza A virus [18]
  Activity: 0.81%
Influenza A virus [19]
  Activity: 95.4%
Influenza A virus [20]
  inhibition: Active
[21]
  Activity: Non-Toxic
[22]
  selectivity ratio at 72 h: > 351
[23]
  Activity: 98.6%
Influenza A virus [24]
  EC50: 2.28 µM
Influenza A virus [25]
  Activity: Active
Influenza A virus [26]
  Activity: Active
